Experimental findings from publication PMC8658889, “Seriniquinones as Therapeutic Leads for Treatment of BRAF and NRAS Mutant Melanomas” (Molecules, 2021) are described below.

Holding throughout (format): cell-based, Human
Assay [1] has as its system SK-MEL-28. As to the kind of experiment: Clonogenic assay. Conditions: SK-MEL-28, 24 h treatment at half IC50 and IC50, 6 days in drug-free medium. How it is done:
(§1) […] (2.5 × 10^5) cells in 1 mL of media were seeded in cell culture dishes and, 24 h later, treated with SQ1 (0.3 µM and 0.6 µM for SK-MEL-28 and 0.9 µM and 1.8 µM for SK-MEL-147) or SQ2 (0.05 µM and 0.1 µM for SK-MEL-28 and 0.6 µM and 1.2 µM for SK-MEL-147) for 24 h. Doxorubicin (DOX; 1.4 µM for SK-MEL-28 and 0.8 µM for SK-MEL-147) was used as positive control and 0.5% DMSO as negative control.
After the cells were submitted to the treatment scheme (Section 4.6), adherent cells were collected, plated at 1 × 10^3 cell/plate on 35-mm plates and maintained in culture for 6 days in treatment-free medium. The medium was replaced every 2 days. Cells were then fixed and stained with a solution of 20% MeOH (Synth, Diadema, São Paulo, Brazil) and 0.5 g crystal violet (Sigma-Aldrich, St. Louis, MO, USA). Images were acquired using G:BOX Chemi XRQ (Syngene, Cambridge, UK) and quantified using the ImageJ program (ColonyArea; US National Institutes of Health, Bethesda, MD, USA).

A further assay concerns SK-MEL-147. As to the kind of experiment: Western blotting of apoptosis and autophagy markers. Conditions: SK-MEL-147, 24 h. How it is done:
as §1
(§2) Treated cells (Section 4.6) had their proteins extracted with the following solution: 10 mM ethylenediaminetetraacetic acid (EDTA), 10% triton, 2 mM phenylmethanesulfonyl fluoride (PMSF), 10 mM Tris base, 10 mM sodium pyrophosphate, 100 mM sodium fluoride, 2.5 mM sodium orthovanadate, and deionized water. The resulting extract was quantified for protein concentration and 30 µg of protein were subjected to SDS-PAGE and to Western blot analysis with the indicated antibodies: cleaved PARP-1 (#5625), PARP1 (#9542), cleaved caspase-3 (#9604), caspase-3 (#9662), SQSTM1/p62 (#5114), LC3B (#2775), and α-tubulin (#2144) from Cell Signaling Technology (Danvers, MA, USA). Images of membranes were made using Pierce ECL Western Blotting Substrate (Thermo Fisher Scientific, San Jose, CA, USA) and G:BOX Chemi XRQ (Syngene, Cambridge, UK). Band intensities were quantified using UN-SCAN-IT gel 6.1 software (Silk Scientific; Orem, UT, USA).

Assay [2] concerns SK-MEL-28. The description is as above. Conditions: SK-MEL-28, 24 h. How it is done: as §1, §2
A further assay concerns melanoma cells. As to the kind of experiment: MTT cytotoxicity assay, melanoma panel. The source says:
Human cell lines were used throughout this program. SK-MEL-19 (melanoma BRAF^V600E, NRAS^WT), SK-MEL-28 (melanoma BRAF^V600E, NRAS^WT), SK-MEL-147 (melanoma BRAF^WT, NRAS^Q61R), MRC-5 (fibroblasts), and primary fibroblast (FDH) were kindly provided by Professor Glaucia Santelli (University of São Paulo, Brazil). MCF7 (breast adenocarcinoma, ATCC HTB-22), and HCT-116 (colorectal carcinoma, ATCC 247) cells were obtained from American Type Culture Collection (ATCC) and deposited in the Cell Bank of Rio de Janeiro, Brazil. WM293A (metastatic melanoma BRAF^V600D, NRAS^WT), 501mel (metastatic melanoma BRAF^V600E; NRAS^G12D), and MM200 (melanoma BRAF^V600E, NRAS^WT) were kindly provided by Professor Sharon Prince, University of Cape Town, South Africa. All human melanoma and breast cell lines were cultivated with Dulbecco’s Modified Eagle Medium: Nutrient Mixture F-12 (Thermo Fisher Scientific, San Jose, CA, USA). MM200 and HCT-116 were maintained with Roswell Park Memorial Institute (RPMI) medium (Thermo Fisher Scientific, San Jose, CA, USA). Unless stated otherwise, media was supplemented with 10% fetal bovine serum (FBS) and 1% penicillin-streptomycin (Thermo Fisher Scientific, San Jose, CA, USA). Cells were incubated with 5% CO2 at 37 °C. When required, cells were detached from flask using trypsin-EDTA 0.05% (Thermo Fisher Scientific, San Jose, CA, USA).
Cytotoxic activity was evaluated by the transformation of 3-(4,5-dimethylthiazol-2-yl)-2,5-diphenyltetrazolium bromide (MTT; Thermo Fisher Scientific, San Jose, CA, USA) into formazan by viable cells. Cells were plated in a 96-well plate (1 × 10^4 cells/well) and, 24 h later, exposed to serial dilutions of the test compounds (from 0.00032 to 5.0 µM) for 24, 48, and 72 h. For each analysis, negative controls received 0.5% DMSO and positive control was delivered by doxorubicin (DOX; 0.05 to 10.0 µM). At the end of the incubation periods, the medium was replaced with fresh medium containing 0.5 mg/mL of MTT and supernatant was removed 3 h later. The plates were dried at 50 °C for 30 min and formazan was solubilized in DMSO (150 µL/well) for the absorbance measure at 570 nm on a plate reader (Thermo Fisher Scientific, San Jose, CA, USA). IC50 values (half-maximal inhibitory concentration) along with 95% CI (confidence intervals) were calculated by non-linear regression using GraphPad Prism 8.0 software (GraphPad Software, Inc., San Diego, CA, USA).
(Formazan colour is commonly taken as a measure of viable cells.)

On to `O=c1c2ccccc2c(=O)c2c1sc1c(=O)c3ccccc3c(=O)c12` [SQ1, seriniquinone], for which the “reduction of the colony levels” value in the assay with SK-MEL-28 [1] was “greater than 50%”. The “apoptotic markers (cleaved PARP-1, cleaved caspase-3)” value in the assay on SK-MEL-147 and in the assay with SK-MEL-28 [2] was “increase of typical apoptotic markers” throughout. Also, the “autophagic flux (p62)” value in the assay with SK-MEL-28 [2] is reported as “extinction of p62”.
For the molecule `CC(C)(O)C(O)CCc1ccc2c(=O)c3sc4c(=O)c5ccccc5c(=O)c4c3c(=O)c2c1` (centres unmarked) [SQ2], in the assay with melanoma cells (SK-Mel cells versus non-tumor cell lines), the “selectivity indices to SK-Mel cells in relation to non-tumor cell lines” value is reported as “≥ twofold”. Further, in the assay on melanoma cells (melanoma cells versus non-tumor cell lines MRC-5 or FDH, highest values reached), the “selectivity for melanoma cells (SI ratio)” value was 30–40. In addition, the “apoptotic markers (cleaved PARP-1, cleaved caspase-3)” value in the assay with SK-MEL-147 and with SK-MEL-28 [2] was “increase of typical apoptotic markers” throughout.
